Measured values published in ChEMBL document CHEMBL1201862, “PubChem BioAssay data set” (2004).
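Cultured in 96-well plates, cells were exposed to test compound for 48 hours across five concentrations. Here, GI50 denotes the concentration required for 50% inhibition of growth.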 Calls of active or inactive are those of the source. No stated cut-off is given here; in the data, active = GI50 up to about 1.1 µM and inactive = higher.

Key:
Assay in all cases: NCI anticancer screen, dose series, 48 h
786-0 = system: 786-0
A498 = system: A498
ACHN = system: ACHN
BT-549 = system: BT-549
CAKI-1 = system: CAKI-1
CCRF-CEM = system: CCRF-CEM
COLO 205 = system: COLO 205
DU-145 = system: DU-145
EKVX = system: EKVX
HCT-116 = system: HCT-116
HCT-15 = system: HCT-15
HL-60 = system: HL-60
HOP-62 = system: HOP-62
HT-29 = system: HT-29
Hs-578T = system: Hs-578T
IGROV-1 = system: IGROV-1
K562 = system: K562
KM12 = system: KM12
LOX IMVI = system: LOX IMVI
M14 = system: M14
MCF7 = system: MCF7
MDA-MB-231 = system: MDA-MB-231
MDA-MB-435 = system: MDA-MB-435
MDA-N = system: MDA-N
MOLT-4 = system: MOLT-4
Malme-3M = system: Malme-3M
NCI-H226 = system: NCI-H226
NCI-H23 = system: NCI-H23
NCI-H460 = system: NCI-H460
NCI/ADR-RES = system: NCI/ADR-RES
OVCAR-3 = system: OVCAR-3
OVCAR-5 = system: OVCAR-5
OVCAR-8 = system: OVCAR-8
PC-3 = system: PC-3
RPMI-8226 = system: RPMI-8226
RXF 393 = system: RXF 393
SF-268 = system: SF-268
SF-295 = system: SF-295
SF-539 = system: SF-539
SK-MEL-28 = system: SK-MEL-28
SK-MEL-2 = system: SK-MEL-2
SK-MEL-5 = system: SK-MEL-5
SK-OV-3 = system: SK-OV-3
SN12C = system: SN12C
SNB-19 = system: SNB-19
SNB-75 = system: SNB-75
SR = system: SR
SW-620 = system: SW-620
T47D = system: T47D
TK-10 = system: TK-10
U-251 = system: U-251
UACC-257 = system: UACC-257
UACC-62 = system: UACC-62
UO-31 = system: UO-31
A549 = system: A549
NCI-H522 = system: NCI-H522
OVCAR-4 = system: OVCAR-4

## CCCC(C)NC(=O)c1ccc(N(C)Cc2cnc3nc(N)nc(N)c3n2)cc1 (centres undefined)
786-0
  GI50: 10.5 µM (inactive)
A498
  GI50: 69 µM (inactive)
ACHN
  GI50: 35.2 µM (inactive)
BT-549
  GI50: 15.5 µM (inactive)
CAKI-1
  GI50: 34 µM (inactive)
CCRF-CEM
  GI50: 26.2 µM (inactive)
COLO 205
  GI50: 28.2 µM (inactive)
DU-145
  GI50: 27.2 µM (inactive)
EKVX
  GI50: 56.9 µM (inactive)
HCT-116
  GI50: 5.16 µM (inactive)
HCT-15
  GI50: 26.4 µM
HL-60
  GI50: 16.4 µM (inactive)
HOP-62
  GI50: 29.5 µM (inactive)
HT-29
  GI50: 17.6 µM (inactive)
Hs-578T
  GI50: 16.2 µM (inactive)
IGROV-1
  GI50: 17.7 µM (inactive)
K562
  GI50: 8 µM (inactive)
KM12
  GI50: 31.3 µM (inactive)
LOX IMVI
  GI50: 5.42 µM (inactive)
M14
  GI50: 11.5 µM (inactive)
MCF7
  GI50: 23.3 µM (inactive)
MDA-MB-231
  GI50: 27.5 µM (inactive)
MDA-MB-435
  GI50: 11.7 µM (inactive)
MDA-N
  GI50: 14.6 µM (inactive)
MOLT-4
  GI50: 33.2 µM (inactive)
Malme-3M
  GI50: 16.9 µM (inactive)
NCI-H226
  GI50: 19.1 µM (inactive)
NCI-H23
  GI50: 29.4 µM (inactive)
NCI-H460
  GI50: 21.5 µM (inactive)
NCI/ADR-RES
  GI50: > 100 µM (inactive)
OVCAR-3
  GI50: 21.4 µM (inactive)
OVCAR-5
  GI50: 29.3 µM (inactive)
OVCAR-8
  GI50: 14.9 µM (inactive)
PC-3
  GI50: 9.84 µM (inactive)
RPMI-8226
  GI50: 91 µM (inactive)
RXF 393
  GI50: 26.2 µM (inactive)
SF-268
  GI50: 12 µM (inactive)
SF-295
  GI50: 27.6 µM (inactive)
SF-539
  GI50: 11 µM (inactive)
SK-MEL-28
  GI50: 18.5 µM (inactive)
SK-MEL-2
  GI50: 21.8 µM (inactive)
SK-MEL-5
  GI50: 10.1 µM (inactive)
SK-OV-3
  GI50: 41.6 µM (inactive)
SN12C
  GI50: 44.6 µM (inactive)
SNB-19
  GI50: 22.6 µM (inactive)
SNB-75
  GI50: 24.4 µM (inactive)
SR
  GI50: 17.6 µM (inactive)
SW-620
  GI50: 28.4 µM (inactive)
T47D
  GI50: 24 µM (inactive)
TK-10
  GI50: 31.3 µM (inactive)
U-251
  GI50: 14.8 µM (inactive)
UACC-257
  GI50: 15.9 µM (inactive)
UACC-62
  GI50: 6.3 µM (inactive)
UO-31
  GI50: 46.1 µM (inactive)

## Cc1ccc2c(c1)nc(N)n[n+]2[O-]
786-0
  GI50: > 100 µM (inactive)
A498
  GI50: > 100 µM (inactive)
A549
  GI50: > 100 µM (inactive)
ACHN
  GI50: > 100 µM (inactive)
BT-549
  GI50: > 100 µM (inactive)
CAKI-1
  GI50: > 100 µM (inactive)
CCRF-CEM
  GI50: > 100 µM (inactive)
COLO 205
  GI50: > 100 µM (inactive)
DU-145
  GI50: > 100 µM (inactive)
EKVX
  GI50: > 100 µM (inactive)
HCT-116
  GI50: > 100 µM (inactive)
HCT-15
  GI50: > 100 µM
HL-60
  GI50: > 100 µM (inactive)
HOP-62
  GI50: > 100 µM (inactive)
HT-29
  GI50: > 100 µM (inactive)
Hs-578T
  GI50: > 100 µM (inactive)
IGROV-1
  GI50: > 100 µM (inactive)
K562
  GI50: > 100 µM (inactive)
KM12
  GI50: > 100 µM (inactive)
LOX IMVI
  GI50: > 100 µM (inactive)
M14
  GI50: > 100 µM (inactive)
MCF7
  GI50: > 100 µM (inactive)
MDA-MB-231
  GI50: > 100 µM (inactive)
MDA-MB-435
  GI50: > 100 µM (inactive)
MDA-N
  GI50: > 100 µM (inactive)
MOLT-4
  GI50: > 100 µM (inactive)
NCI-H226
  GI50: > 100 µM (inactive)
NCI-H23
  GI50: > 100 µM (inactive)
NCI-H460
  GI50: > 100 µM (inactive)
NCI-H522
  GI50: > 100 µM (inactive)
NCI/ADR-RES
  GI50: > 100 µM (inactive)
OVCAR-3
  GI50: > 100 µM (inactive)
OVCAR-4
  GI50: > 100 µM (inactive)
OVCAR-5
  GI50: > 100 µM (inactive)
OVCAR-8
  GI50: > 100 µM (inactive)
PC-3
  GI50: > 100 µM (inactive)
RPMI-8226
  GI50: > 100 µM (inactive)
SF-268
  GI50: > 100 µM (inactive)
SF-295
  GI50: > 100 µM (inactive)
SF-539
  GI50: > 100 µM (inactive)
SK-MEL-28
  GI50: > 100 µM (inactive)
SK-MEL-2
  GI50: > 100 µM (inactive)
SK-MEL-5
  GI50: > 100 µM (inactive)
SK-OV-3
  GI50: > 100 µM (inactive)
SN12C
  GI50: > 100 µM (inactive)
SNB-19
  GI50: > 100 µM (inactive)
SNB-75
  GI50: 85.9 µM (inactive)
SR
  GI50: > 100 µM (inactive)
SW-620
  GI50: > 100 µM (inactive)
T47D
  GI50: > 100 µM (inactive)
TK-10
  GI50: > 100 µM (inactive)
U-251
  GI50: > 100 µM (inactive)
UACC-257
  GI50: > 100 µM (inactive)
UACC-62
  GI50: > 100 µM (inactive)
UO-31
  GI50: > 100 µM (inactive)
